Data published in ChEMBL document CHEMBL4342498, “Design and Discovery of an Orally Efficacious Spiroindolinone-Based Tankyrase Inhibitor for the Treatment of Colon Cancer” (J Med Chem, 2020).
Activity calls are given as the source filed them. The rule behind the calls is not given here.

Legend:
[1] = tested on: RKO; experiment: Antiproliferative activity against human RKO cells assessed inhibition of cell growth measured after 5 days by MTT assay; type: functional; details: 120 h
[2] = Tmax in Sprague-Dawley rat at 3 mg/kg, po; type: ADME, organism-based; details: in vivo
[3] = Cmax in ICR mouse at 20 mg/kg, ip; type: ADME, organism-based; set-up: dose 20 mg/kg, route intraperitoneal; details: in vivo
[4] = Plasma concentration in human COLO320DM cells xenografted Prkdc-NOD-SCID CB17 mouse at 10 mg/kg, po administered twice daily for 5 days followed by 2 days interval for 2 cycles measured 4 hrs post-last dose; type: ADME, organism-based
[5] = target: T1, Cytochrome P450 1A2 (Homo sapiens, UniProt P05177); experiment: Inhibition of CYP1A2 in human liver microsomes using phenacetin as substrate preincubated for 5 mins followed by NADPH addition and measured for 10 to 30 mins by LC-MS/MS analysis; type: ADME
T1 sequence (P05177 whole entry): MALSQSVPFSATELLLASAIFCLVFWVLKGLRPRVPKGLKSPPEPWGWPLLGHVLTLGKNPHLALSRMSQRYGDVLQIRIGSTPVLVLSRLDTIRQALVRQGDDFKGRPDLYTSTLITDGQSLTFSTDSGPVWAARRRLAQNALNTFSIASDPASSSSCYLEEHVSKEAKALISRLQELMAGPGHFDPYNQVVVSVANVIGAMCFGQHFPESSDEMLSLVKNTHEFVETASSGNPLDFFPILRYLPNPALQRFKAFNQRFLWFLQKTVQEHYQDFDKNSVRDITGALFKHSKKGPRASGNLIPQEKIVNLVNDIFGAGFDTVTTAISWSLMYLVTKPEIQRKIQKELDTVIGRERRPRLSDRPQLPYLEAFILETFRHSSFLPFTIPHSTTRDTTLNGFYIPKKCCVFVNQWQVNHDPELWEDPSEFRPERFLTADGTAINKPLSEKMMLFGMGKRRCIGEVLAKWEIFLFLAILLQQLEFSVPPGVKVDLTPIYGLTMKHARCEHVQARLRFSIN

[6] = species: Homo sapiens
[7] = Toxicity in human COLO320DM cells xenografted Prkdc-NOD-SCID CB17 mouse assessed as behavioral changes at 10 to 20 mg/kg, ip administered twice daily for 5 days followed by 2 days interval for 2 cycles measured during compound dosing; type: organism-based; details: in vivo
[8] = tested on: Mus musculus; experiment: (§1) In vivo inhibition of TNSK/TNSK2-medited WNT/beta-catenin signaling in human COLO320DM cells xenografted Prkdc-NOD-SCID CB17 mouse assessed as reduction in total beta catenin expression in tumor nuclear extract at 10 to 20 mg/kg, po administered twice daily for 5 days followed by 2 days interval for 2 cycles measured 4 hrs post-last dose by Western blot analysis; type: functional, organism-based
[9] = species: Homo sapiens; remark: listed apart in the source
[10] = Half life in ICR mouse at 20 mg/kg, po; type: ADME, organism-based; details: in vivo
[11] = tested on: COLO 320DM; experiment: Antitumor activity against human COLO320DM cells xenografted in Prkdc-NOD-SCID CB17 mouse assessed as tumor growth inhibition at 10 mg/kg, po administered twice daily for 5 days followed by 2 days interval for 2 cycles relative to control; type: functional; details: read-out: TGI
[12] = target: Tankyrase 1/2 (Homo sapiens) (UniProt Q9H2K2+O95271); experiment: Inhibition of TNKS/TNKS2-mediated WNT/beta-catenin signaling pathway in human COLO320DM cells assessed as reduction in active beta-catenin expression by measuring beta-catenin level at 0.1 uM measured after 16 hrs by Western blot analysis relative to GADPH; type: cell-based
[13] = tested on: Mus musculus; experiment: as §1, with “upregulation of AXIN2” for “reduction in total beta catenin”, “cytosolic” for “nuclear”; type: functional, organism-based
[14] = tested on: COLO 320DM; experiment: Antitumor activity against human COLO320DM cells xenografted in Prkdc-NOD-SCID CB17 mouse assessed as tumor growth inhibition at 20 mg/kg, po administered twice daily for 5 days followed by 2 days interval for 2 cycles relative to control; type: functional; details: read-out: TGI
[15] = target: T2, Cytochrome P450 2B6 (Homo sapiens, UniProt P20813); experiment: Inhibition of CYP2B6 in human liver microsomes using bupropion as substrate preincubated for 5 mins followed by NADPH addition and measured for 10 to 30 mins by LC-MS/MS analysis; type: ADME
T2 sequence (P20813 whole entry): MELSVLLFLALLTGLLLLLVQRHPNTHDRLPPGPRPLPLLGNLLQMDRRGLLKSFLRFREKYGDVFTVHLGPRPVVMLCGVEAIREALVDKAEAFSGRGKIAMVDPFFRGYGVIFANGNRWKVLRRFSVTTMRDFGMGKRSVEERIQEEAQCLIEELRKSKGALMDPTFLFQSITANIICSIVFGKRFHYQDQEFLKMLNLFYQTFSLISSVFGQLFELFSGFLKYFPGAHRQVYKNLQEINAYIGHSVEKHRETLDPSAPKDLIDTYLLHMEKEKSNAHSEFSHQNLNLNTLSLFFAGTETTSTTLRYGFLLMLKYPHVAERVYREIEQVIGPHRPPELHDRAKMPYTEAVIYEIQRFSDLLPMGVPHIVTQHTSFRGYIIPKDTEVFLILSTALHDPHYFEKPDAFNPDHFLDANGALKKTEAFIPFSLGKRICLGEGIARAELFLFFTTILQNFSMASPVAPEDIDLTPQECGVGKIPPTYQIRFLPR

[16] = Tmax in ICR mouse at 20 mg/kg, po; type: ADME, organism-based; details: in vivo
[17] = Toxicity in human COLO320DM cells xenografted Prkdc-NOD-SCID CB17 mouse assessed as reduction in crypt proliferation at 50 mg/kg, ip administered twice daily for 5 days followed by 2 days interval for 2 cycles; details: in vivo
[18] = Cmax in Sprague-Dawley rat at 3 mg/kg, po; type: ADME, organism-based; set-up: dose 3 mg/kg, route oral; details: in vivo
[19] = target: T3, Cytochrome P450 2C8 (Homo sapiens, UniProt P10632); experiment: Inhibition of CYP2C8 in human liver microsomes using amodiaquine as substrate preincubated for 5 mins followed by NADPH addition and measured for 10 to 30 mins by LC-MS/MS analysis; type: ADME
T3 sequence (P10632 whole entry): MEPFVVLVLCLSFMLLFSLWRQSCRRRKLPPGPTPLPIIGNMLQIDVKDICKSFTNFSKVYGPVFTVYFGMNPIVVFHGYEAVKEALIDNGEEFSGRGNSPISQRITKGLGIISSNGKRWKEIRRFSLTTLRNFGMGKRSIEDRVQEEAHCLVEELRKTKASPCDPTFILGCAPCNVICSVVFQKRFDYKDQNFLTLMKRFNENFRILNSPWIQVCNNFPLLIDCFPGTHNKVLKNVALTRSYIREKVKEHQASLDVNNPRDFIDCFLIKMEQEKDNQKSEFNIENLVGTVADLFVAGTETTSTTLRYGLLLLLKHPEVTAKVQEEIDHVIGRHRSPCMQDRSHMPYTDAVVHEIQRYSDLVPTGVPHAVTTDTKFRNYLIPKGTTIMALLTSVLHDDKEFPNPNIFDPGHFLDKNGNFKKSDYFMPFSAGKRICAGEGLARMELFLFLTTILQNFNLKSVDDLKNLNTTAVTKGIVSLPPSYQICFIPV

[20] = AUC (infinity) in ICR mouse at 20 mg/kg, po; type: ADME, organism-based; set-up: dose 20 mg/kg, time infinity, route oral; details: in vivo

Chain of Tankyrase 1/2 (Homo sapiens) (O95271 whole entry, looked up): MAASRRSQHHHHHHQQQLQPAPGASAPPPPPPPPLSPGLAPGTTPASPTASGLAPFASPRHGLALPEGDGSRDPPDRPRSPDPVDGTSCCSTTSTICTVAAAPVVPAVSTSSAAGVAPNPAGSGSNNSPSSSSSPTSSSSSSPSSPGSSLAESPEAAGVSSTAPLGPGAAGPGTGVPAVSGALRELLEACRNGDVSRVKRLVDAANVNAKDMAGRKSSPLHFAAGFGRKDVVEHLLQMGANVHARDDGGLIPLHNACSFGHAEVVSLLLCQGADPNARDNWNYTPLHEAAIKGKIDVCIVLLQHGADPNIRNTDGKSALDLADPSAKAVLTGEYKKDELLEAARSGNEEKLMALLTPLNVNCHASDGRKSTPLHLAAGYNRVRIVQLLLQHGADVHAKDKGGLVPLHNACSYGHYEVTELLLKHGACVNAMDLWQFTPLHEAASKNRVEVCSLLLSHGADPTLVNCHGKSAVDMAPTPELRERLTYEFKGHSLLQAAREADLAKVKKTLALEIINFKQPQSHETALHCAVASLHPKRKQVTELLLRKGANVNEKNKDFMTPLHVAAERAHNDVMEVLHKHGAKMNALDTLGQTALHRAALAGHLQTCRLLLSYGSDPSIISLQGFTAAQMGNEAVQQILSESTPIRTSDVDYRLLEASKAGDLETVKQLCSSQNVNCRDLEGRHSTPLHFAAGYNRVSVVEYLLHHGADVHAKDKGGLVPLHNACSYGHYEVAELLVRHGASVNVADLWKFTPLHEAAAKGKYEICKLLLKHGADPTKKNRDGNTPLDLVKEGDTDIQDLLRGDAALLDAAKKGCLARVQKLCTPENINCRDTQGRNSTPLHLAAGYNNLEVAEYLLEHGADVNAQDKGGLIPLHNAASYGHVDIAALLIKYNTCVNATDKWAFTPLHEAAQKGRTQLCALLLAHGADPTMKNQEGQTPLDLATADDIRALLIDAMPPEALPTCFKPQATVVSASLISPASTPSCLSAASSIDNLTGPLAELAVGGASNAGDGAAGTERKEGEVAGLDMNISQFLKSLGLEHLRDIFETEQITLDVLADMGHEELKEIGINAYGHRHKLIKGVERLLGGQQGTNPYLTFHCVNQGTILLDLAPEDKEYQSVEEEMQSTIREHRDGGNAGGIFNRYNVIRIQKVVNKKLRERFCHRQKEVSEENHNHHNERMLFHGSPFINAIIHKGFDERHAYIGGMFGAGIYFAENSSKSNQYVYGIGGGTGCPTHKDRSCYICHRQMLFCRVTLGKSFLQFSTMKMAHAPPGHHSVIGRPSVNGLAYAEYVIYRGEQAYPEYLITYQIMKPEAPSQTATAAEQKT
Chain of Tankyrase 1/2 (Homo sapiens) (Q9H2K2 whole entry, looked up): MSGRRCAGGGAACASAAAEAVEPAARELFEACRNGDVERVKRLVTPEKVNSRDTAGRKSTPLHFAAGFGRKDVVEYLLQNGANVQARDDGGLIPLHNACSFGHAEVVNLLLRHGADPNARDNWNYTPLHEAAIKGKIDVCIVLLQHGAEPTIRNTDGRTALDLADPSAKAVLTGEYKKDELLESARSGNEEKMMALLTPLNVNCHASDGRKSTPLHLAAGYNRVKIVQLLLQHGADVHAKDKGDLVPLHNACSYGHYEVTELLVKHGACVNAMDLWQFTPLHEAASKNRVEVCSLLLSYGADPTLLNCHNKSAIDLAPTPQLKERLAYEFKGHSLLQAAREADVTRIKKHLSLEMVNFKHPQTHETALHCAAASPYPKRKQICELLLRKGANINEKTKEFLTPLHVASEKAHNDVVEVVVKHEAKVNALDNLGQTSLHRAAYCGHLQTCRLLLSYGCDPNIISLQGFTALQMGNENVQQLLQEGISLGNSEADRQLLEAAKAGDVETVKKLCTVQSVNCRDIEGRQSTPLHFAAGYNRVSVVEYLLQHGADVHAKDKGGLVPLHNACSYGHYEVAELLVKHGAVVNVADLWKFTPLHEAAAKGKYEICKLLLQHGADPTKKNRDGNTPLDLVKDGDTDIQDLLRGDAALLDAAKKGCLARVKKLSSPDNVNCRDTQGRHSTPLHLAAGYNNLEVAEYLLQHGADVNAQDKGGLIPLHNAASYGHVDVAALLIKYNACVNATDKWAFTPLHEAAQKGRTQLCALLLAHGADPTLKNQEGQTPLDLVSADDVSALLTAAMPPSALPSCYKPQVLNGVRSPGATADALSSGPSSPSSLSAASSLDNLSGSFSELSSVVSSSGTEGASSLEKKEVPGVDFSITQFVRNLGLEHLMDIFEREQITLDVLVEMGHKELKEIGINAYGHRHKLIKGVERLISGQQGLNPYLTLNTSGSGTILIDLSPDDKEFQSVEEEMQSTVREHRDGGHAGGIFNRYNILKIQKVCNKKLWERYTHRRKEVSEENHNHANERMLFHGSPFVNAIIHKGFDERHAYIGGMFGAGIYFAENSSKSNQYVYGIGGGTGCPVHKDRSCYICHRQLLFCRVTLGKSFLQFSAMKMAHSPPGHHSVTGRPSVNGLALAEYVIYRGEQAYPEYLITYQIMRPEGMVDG

Tmax [2]: 0.33 h
Cmax [3]: 75.6 µM
concentration at 4 h [4]: 10.1 µM
IC50 [5]: > 10 µM
Ratio IC50 [6]: 34
Ratio IC50 [9]: 223
half-life [10]: 1.7 h
fold change (FC) [12]: 0.39
IC50 [15]: > 10 µM
Tmax [16]: 1 h
Cmax [18]: 12.7 µM
IC50 [19]: > 10 µM
AUC(0-inf) [20]: 326 µM·h
SMILES: C[C@@H]1CN(c2cc(F)c3c(c2)N(C)C(=O)C32CCN(c3nc4c(c(=O)[nH]3)CCCN4C)CC2)C[C@H](C)O1
GI50 [1]: > 10 µM
Activity [7]: Non-Toxic
inhibition [8]: Active
inhibition in vivo at 10 mg/kg [11]: 52.3%
inhibition [13]: Active
inhibition in vivo at 20 mg/kg [14]: 52%
Activity [17]: Toxic
